Among the data in patent US5674988A, “4-N-substituted sialic acids and their sialosides” (E. I. Du Pont de Nemours and Company, priority 1996, dated 1997) are Ki values, retold here.

Structures are written as SMILES. pKi: −log10 of the molar value. Structures can show the parent of a compound that is named as a salt.

In the assay the target is influenza A neuraminidase. Put plainly: Radiolabeled-substrate neuraminidase inhibition assay (hydrolysis of 14C-labeled αDNeuAc(2-6)βDGal(1-4)DGlcNAc, A). Conditions: substrate A at 1.0-8.0 mM; inhibitor 0.07, 0.14, 0.28 mM; 100 mM NaOAc-5 mM Na2HPO4 pH 5.5; 37° C.; from Lineweaver-Burk plots; read-out: inhibition constant Ki. Type of assay: biochemical, influenza A virus. The procedure:
In order to determine the effectiveness of the instant thiosialosides as neuraminidase inhibitors, incubations were performed involving the neuraminidase, the thiosialoside inhibitor and a ^14 C-labeled substrate, ^14 C-labeled αDNeuAc (2-6) βDGal (1-4) DGlcNAc (A).
Inhibition constants of the inhibitors were determined by incubating (37° C.) a solution of A at four different concentrations with the neuraminidase, in the presence or absence of the inhibitors. After the reaction, the reaction mixture was diluted with deionized water and passed through a column of Dowex resin. The column was further eluted with deionized water. Under these conditions, only the free LacNAc elutes. The eluant was diluted with Scintillation fluid (10 mL, Formula 989, NEN, MA) and the radioactivity was measured, and the amount of free LacNAc liberated was determined.
The activity of neuraminidase was measured with a radiolabeled substrate. […]
The neuraminidase concentration was 53 ug of influenza A virus in 60 uL of total reaction volume. […] The eluant was diluted with Scintillation fluid (10 mL), Formula 989, NEN, MA) and the radioactivity was measured for 2 or 5 min with a Liquid Scintillation counter. From the Lineweaver-Burk plots for the hydrolysis of A the inhibition constant Ki was calculated according to methods known in the art.

In general, pKi refers to the Ki on a negative log10 scale, so that one unit is a factor of ten. Turning to `CC(=O)N[C@H]1[C@H]([C@H](O)[C@H](O)CO)O[C@@](S[C@H](C)[C@H]2OC(O)[C@H](O)[C@@H](O)[C@H]2O)(C(=O)O)C[C@@H]1N` (stereo partly drawn) [Compound 14, Sodium Salt of 5-acetamido-4-amino-2-thio-3,4,5-trideoxy-D-glycero-D-galacto-nonulopyranosylonic acid(2-S-6)-7-deoxy-α,β-D-glycero-D-galacto-heptopyranose], the pKi is 4.29.

Take `CC(=O)NC1C(N)CC(OCC2OC(O)C(O)C(O)C2O)(C(=O)O)OC1C(O)C(O)CO` [Compound 12, Sodium Salt of 5-acetamido-4-amino-3,4,5-trideoxy-D-glycero-D-galacto-nonulopyranosylonicacid (2-6)-α-D-galacto-pyranose]: the pKi was 4.00.
